{"source": "patent US8987260B2", "about": "“Pharmaceutical compounds” (F. Hoffmann-La Roche AG, priority 2006, dated 2015)", "key": {"[1]": {"experiment": "Aqueous solubility at physiological pH", "format": "physicochemical", "conditions": "aqueous medium at physiological pH, pH 7.4, aqueous buffer"}, "CYP450 2D6": {"target": "CYP450 2D6 (Homo sapiens, UniProt P10635)", "sequence (P10635 whole entry)": "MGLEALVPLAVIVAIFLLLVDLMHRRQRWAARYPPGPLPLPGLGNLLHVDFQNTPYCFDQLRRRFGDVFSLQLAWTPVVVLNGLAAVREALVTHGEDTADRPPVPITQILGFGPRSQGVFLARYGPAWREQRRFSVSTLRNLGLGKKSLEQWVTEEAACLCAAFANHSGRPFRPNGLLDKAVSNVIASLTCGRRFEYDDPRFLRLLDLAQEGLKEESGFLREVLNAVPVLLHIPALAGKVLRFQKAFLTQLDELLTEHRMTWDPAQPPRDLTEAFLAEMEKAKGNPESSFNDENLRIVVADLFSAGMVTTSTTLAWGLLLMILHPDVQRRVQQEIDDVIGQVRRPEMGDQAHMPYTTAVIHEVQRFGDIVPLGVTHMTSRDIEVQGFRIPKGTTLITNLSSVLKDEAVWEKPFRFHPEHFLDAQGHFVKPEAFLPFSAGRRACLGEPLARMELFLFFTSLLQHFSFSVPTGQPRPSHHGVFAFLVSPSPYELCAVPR", "experiment": "Cytochrome P450 inhibition", "format": "in vitro ADME", "conditions": "top concentration 100 uM", "text": "(§1) Standard inhibitors (furafylline, sulfaphenazole, tranylcypromine, quinidine, ketoconazole) were used as controls. Plates were read using a BMG LabTechnologies PolarStar in fluorescence mode."}, "CYP450 2C19": {"target": "CYP450 2C19 (Homo sapiens, UniProt P33261)", "sequence (P33261 whole entry)": "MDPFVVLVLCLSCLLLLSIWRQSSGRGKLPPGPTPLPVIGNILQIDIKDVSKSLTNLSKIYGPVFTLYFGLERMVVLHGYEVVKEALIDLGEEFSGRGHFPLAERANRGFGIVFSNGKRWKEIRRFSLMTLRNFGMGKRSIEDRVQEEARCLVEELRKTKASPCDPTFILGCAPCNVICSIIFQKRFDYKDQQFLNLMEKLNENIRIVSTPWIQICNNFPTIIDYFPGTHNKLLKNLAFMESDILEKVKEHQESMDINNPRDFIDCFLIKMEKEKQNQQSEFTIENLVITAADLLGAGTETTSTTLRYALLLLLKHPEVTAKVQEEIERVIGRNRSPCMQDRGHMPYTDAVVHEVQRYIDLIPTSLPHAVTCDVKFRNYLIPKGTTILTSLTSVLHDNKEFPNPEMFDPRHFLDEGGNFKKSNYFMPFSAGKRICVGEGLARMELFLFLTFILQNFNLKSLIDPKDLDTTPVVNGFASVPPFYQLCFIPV", "experiment": "Cytochrome P450 inhibition", "format": "in vitro ADME", "conditions": "top concentration 100 uM", "text": "as §1"}, "CYP450 3A4": {"target": "CYP450 3A4 (Homo sapiens, UniProt P08684)", "sequence (P08684 whole entry)": "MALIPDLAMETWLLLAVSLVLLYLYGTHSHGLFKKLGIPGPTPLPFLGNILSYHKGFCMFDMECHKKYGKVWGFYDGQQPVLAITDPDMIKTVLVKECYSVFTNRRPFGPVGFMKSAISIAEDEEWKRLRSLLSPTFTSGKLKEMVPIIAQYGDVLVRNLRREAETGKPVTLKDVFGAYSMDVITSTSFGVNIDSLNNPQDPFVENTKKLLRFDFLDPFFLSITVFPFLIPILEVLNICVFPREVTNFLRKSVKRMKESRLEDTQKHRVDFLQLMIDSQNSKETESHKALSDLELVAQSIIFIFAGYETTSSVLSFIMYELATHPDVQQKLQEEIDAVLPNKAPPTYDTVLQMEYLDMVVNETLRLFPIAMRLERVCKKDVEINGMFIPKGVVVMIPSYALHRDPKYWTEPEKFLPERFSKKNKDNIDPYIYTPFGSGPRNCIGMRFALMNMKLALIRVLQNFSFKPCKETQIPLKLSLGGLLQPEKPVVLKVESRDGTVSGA", "experiment": "Cytochrome P450 inhibition", "format": "in vitro ADME", "conditions": "top concentration 100 uM", "text": "as §1"}, "CYP450 2C9": {"target": "CYP450 2C9 (Homo sapiens, UniProt P11712)", "sequence (P11712 whole entry)": "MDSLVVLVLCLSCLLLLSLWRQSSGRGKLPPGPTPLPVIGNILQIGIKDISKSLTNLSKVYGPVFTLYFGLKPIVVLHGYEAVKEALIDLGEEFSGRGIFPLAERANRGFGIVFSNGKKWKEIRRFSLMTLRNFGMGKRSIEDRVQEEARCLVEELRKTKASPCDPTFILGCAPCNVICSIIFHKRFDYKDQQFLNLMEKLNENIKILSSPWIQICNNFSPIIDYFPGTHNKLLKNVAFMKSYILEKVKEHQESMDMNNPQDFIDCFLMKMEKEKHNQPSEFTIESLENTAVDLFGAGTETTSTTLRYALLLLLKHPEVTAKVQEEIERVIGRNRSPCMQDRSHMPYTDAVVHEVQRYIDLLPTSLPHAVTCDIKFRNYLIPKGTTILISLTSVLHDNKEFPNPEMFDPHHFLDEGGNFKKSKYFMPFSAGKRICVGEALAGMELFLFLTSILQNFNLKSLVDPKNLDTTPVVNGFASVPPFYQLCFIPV", "experiment": "Cytochrome P450 inhibition", "format": "in vitro ADME", "conditions": "top concentration 100 uM", "text": "as §1"}, "CYP450 1A2": {"target": "T1, CYP450 1A2 (Homo sapiens, UniProt P05177)", "T1 sequence (P05177 1-516)": "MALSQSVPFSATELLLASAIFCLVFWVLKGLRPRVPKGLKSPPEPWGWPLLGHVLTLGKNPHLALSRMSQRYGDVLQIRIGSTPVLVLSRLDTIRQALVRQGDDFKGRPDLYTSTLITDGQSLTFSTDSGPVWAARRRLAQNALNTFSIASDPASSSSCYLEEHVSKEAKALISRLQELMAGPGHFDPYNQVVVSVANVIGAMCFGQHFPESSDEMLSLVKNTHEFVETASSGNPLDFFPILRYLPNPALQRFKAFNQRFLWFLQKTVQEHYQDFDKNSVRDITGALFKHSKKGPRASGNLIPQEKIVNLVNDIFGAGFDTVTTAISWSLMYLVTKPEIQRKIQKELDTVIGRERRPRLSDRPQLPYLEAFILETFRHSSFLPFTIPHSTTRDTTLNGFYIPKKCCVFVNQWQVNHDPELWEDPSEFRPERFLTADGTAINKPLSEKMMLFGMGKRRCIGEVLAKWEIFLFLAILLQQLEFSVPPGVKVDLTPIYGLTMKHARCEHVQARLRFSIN", "experiment": "Cytochrome P450 inhibition", "format": "in vitro ADME", "conditions": "top concentration 100 uM", "text": "as §1"}, "[2]": {"experiment": "Plasma protein binding (equilibrium dialysis)", "format": "in vitro ADME", "conditions": "10% plasma (v/v in buffer), 37° C., read-out: fraction unbound (Fu)", "description": "Solutions of test compound (5 um, 0.5% final DMSO concentration) were prepared in buffer and 10% plasma (v/v in buffer). A 96 well HT dialysis plate was assembled so that each well was divided in two by a semi-permeable cellulose membrane. The buffer solution was added to one side of the membrane and the plasma solution to the other side; incubations were then conducted at 37° C. over 2 h in triplicate. The cells were subsequently emptied, and the solutions for each batch of compounds were combined into two groups (plasma-free and plasma-containing) then analysed by LC-MSMS using two sets of calibration standards for plasma-free (6 points) and plasma-containing solutions (7 points)."}, "in vitro": {"experiment": "in vitro", "conditions": "human, Caco-2"}, "range of cell lines": {"system": "range of cell lines", "experiment": "Cellular proliferation inhibition (Alamar Blue)", "format": "cell-based", "conditions": "96 h; 4 days incubation, range of cell lines utilized", "description": "Cells were seeded at optimal density in a 96 well plate and incubated for 4 days in the presence of test compound. Alamar Blue™ was subsequently added to the assay medium, and cells were incubated for 6 h before reading at 544 nm excitation, 590 nm emission. EC50 values were calculated using a sigmoidal dose response curve fit."}, "PI3K": {"system": "T2, PI3K", "T2 construct": "other: purified recombinant enzyme, ATP 1 uM, 1 h room temperature", "format": "biochemical", "conditions": "purified recombinant enzyme, ATP 1 uM, 1 h room temperature; read-out: IC50 against PI3K", "description": "The compound was serially diluted in 100% DMSO. The kinase reaction was incubated for 1 h at room temperature, and the reaction was terminated by the addition of PBS. IC50 values were subsequently determined using sigmoidal dose-response curve fit (variable slope)."}}}
{"smiles": "CS(=O)(=O)N1CCN(Cc2cc3nc(-c4cccc5[nH]ncc45)nc(N4CCOCC4)c3s2)CC1", "note": "[compound of the invention, 2-(1H-Indazol-4-yl)-6-(4-methanesulfonyl-piperazin-1-ylmethyl)-4-morpholin-4-yl-thieno[3,2-d]pyrimidine]", "values": [{"measurement": "solubility", "setting": "[1]", "result": "> 100", "unit": "µM"}, {"measurement": "IC50", "setting": "CYP450 2D6", "result": "≥ 5", "unit": "µM"}, {"measurement": "IC50", "setting": "CYP450 2C19", "result": "≥ 5", "unit": "µM"}, {"measurement": "IC50", "setting": "CYP450 3A4", "result": "≥ 5", "unit": "µM"}, {"measurement": "IC50", "setting": "CYP450 2C9", "result": "≥ 5", "unit": "µM"}, {"measurement": "IC50", "setting": "CYP450 1A2", "result": "≥ 5", "unit": "µM"}, {"measurement": "fraction unbound at 2 h, 5 um", "setting": "[2]", "result": "≥ 0.1"}, {"measurement": "Papp", "setting": "in vitro", "result": "≥ 1", "unit": "×10⁻⁶ cm/s"}, {"measurement": "EC50", "setting": "range of cell lines", "result": "≤ 50", "unit": "µM"}, {"measurement": "IC50", "setting": "PI3K", "result": "[…]"}]}
